Data: patent US8796209B2, “Compositions and methods related to anti-FGF agents” (The Regents of the University of California, priority 2005, dated 2014)

Legend:
Assay type in all cases: cell-based
[1] = tested on: M21 human melanoma cells; assay: Chemoresistance: cell viability with etoposide (MTS); conditions: etoposide 0.1-100 μM, 48 h
Experimental: In FIG. 10, results are provided showing suppression of FGF-induced drug resistance in M21 melanoma cells. Resistance of melanoma cells was to etoposide-induced apoptosis. M21 human melanoma cells were cultured in DMEM with 1% FBS for 48 h, and then treated with etoposide (0.1-100 μM) in the presence or absence of wt or mutant FGF for 48 h, with cell viability determined.
Cells were plated on well of 96-well tissue culture plates and serum-starved for 48-72 h in DMEM supplemented with 0-1% FBS. Then cells were treated with etoposide (up to 100 μM) and wt or mutant FGF for additional 24-48 h. Cell viability was determined using CellTiter 96 MTS assay (Promega) and caspases 3/7 activity was determined by using Caspase-Glo 3/7 assay kit (Promega). FIGS. 10 and 11.

[2] = tested on: αvβ3-K562 cells; assay: Cell adhesion assay on immobilized FGF-1, αvβ3-K562 cells; conditions: 1 mM MnCl2
Experimental: Wells of 96-well microtiter plates were coated with FGF-1 at the indicated concentrations and remaining protein binding sites were blocked with 1 mg/ml BSA. Hepes-Tyrode buffer supplemental with 1 mM MnCl2) was used for adhesion assays. Prior to incubation with immobilized FGF-1, αvβ3-K562 cells were treated with 10 μg/ml anti-β3 function-blocking antibody 7E3 (triangle), anti-α5 function-blocking antibody KH72 (square), both 7E3 and KH72 (circle), or mouse IgG (diamond). BSA (cross) was used as a negative control. Data is shown as means+/−SD of triplicate experiments.
(§1) Wells of polystyrene 96-well non-tissue culture plate were coated with wild type or mutants FGF-1 as above. In adhesion assay, cells (10^5 cells/well) in 100 μl of Hepes-Tyrode buffer supplemented with 1 mM Mn^2+ were added to the wells and incubated at 37° C. for 1 h. After non-bound cells were removed by rinsing the wells with the same buffer, bound cells were quantified by measuring endogenous phosphatase activity (Prater et al., 1991)

[3] = tested on: K562 cells; assay: Cell adhesion assay on immobilized FGF-1, mock-transfected K562 cells; conditions: 1 mM MnCl2
Experimental: K562 cells were treated with 10 μg/ml anti-α5 function-blocking antibody KH72 (square) or mouse IgG (diamond) for 10 min on ice. Hepes-Tyrode buffer supplemented with 1 mM MnCl2) was used for adhesion assays. Bound cells were quantified by measuring endogenous phosphatase activity. BSA (cross) was used as a negative control. Data is shown as means+/−SD of triplicate experiments.
as §1

| Substance | effect on apoptosis induced by etoposide [1] | adhesion of αvβ3-K562 cells to the immobilized protein [2] | adhesion of mock-transfected K562 cells to the immobilized protein [3] |
| --- | --- | --- | --- |
| R50E: FGF-1 mutant with the Arg-50 to Glu (R50E) mutation | enhanced apoptosis |  |  |
| Wild type: human FGF-1 (acidic FGF), wild type, expressed in E. coli |  | bound to immobilized FGF-1 in a dose-dependent manner | bound to immobilized FGF-1 in a dose-dependent manner |
